Assay results reported in patent US5248807A, “Triterpene derivatives” (Shionogi & Co., Ltd., priority 1991, dated 1993).
pIC50: −log10 of the molar value.

Assays:
[1] = target: T1, endothelin-receptor (membrane fraction of the media from porcine aorta) (Sus scrofa, UniProt Q29010); test: Inhibitory effect on the binding of 125I-endothelin-1 to the receptor, media of porcine aorta membrane; conditions: 25 pM 125I-endothelin-1, 37° C., 1 hour, read-out: IC50 (concentration to inhibit 50% of the specific binding of 125I-endothelin-1)
T1 construct: Membrane fractions were prepared from porcine and rat hearts, rat thoracic aorta, and the media of porcine aorta; from tissue; host or cells: media of porcine aorta, membrane fraction
T1 sequence (Q29010 21-427): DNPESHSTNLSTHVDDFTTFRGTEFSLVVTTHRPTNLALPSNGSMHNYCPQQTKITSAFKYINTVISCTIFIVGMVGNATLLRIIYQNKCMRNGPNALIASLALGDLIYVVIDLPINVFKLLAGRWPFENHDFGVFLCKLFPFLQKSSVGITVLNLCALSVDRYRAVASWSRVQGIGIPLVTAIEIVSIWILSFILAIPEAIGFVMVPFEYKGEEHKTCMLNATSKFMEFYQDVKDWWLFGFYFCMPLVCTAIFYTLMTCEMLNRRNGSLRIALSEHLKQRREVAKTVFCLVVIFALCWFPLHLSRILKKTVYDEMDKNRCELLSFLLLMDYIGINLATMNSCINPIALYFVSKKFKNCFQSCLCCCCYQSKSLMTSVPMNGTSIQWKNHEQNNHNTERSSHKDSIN
Protocol: (§1) Inhibitory Effect on the Binding of ^125 I-Endothelin-1 to the Receptor
(§2) Membrane fractions were prepared from porcine and rat hearts, rat thoracic aorta, and the media of porcine aorta. Each membrane fraction was incubated, in the presence or absence of the present compound 1 with 25 pM of ^125 I-endothelin-1 at 37° C. for 1 hour. After the reaction was completed, ^125 I-endothelin-1 bound to each membrane fraction was separated by rapid filtration through glass fiber filters and its radioactivity was determined with a gamma-counter. The specific binding was calculated by subtracting, from the total binding, the non-specific binding which was determined in the presence of 10^-7 M of non-radioactive endothelin-1. The concentration of the present compound 1 to inhibit 50% of the specific binding (i.e., IC50) is shown at Table 1.

[2] = target: T2, endothelin-receptor (membrane fraction of rat aorta) (Rattus norvegicus, UniProt P26684); test: Inhibitory effect on the binding of 125I-endothelin-1 to the receptor, rat aorta membrane; conditions: 25 pM 125I-endothelin-1, 37° C., 1 hour, read-out: IC50 (concentration to inhibit 50% of the specific binding of 125I-endothelin-1)
T2 construct: Membrane fractions were prepared from porcine and rat hearts, rat thoracic aorta, and the media of porcine aorta; from tissue; host or cells: rat thoracic aorta, membrane fraction
T2 sequence (P26684 21-426): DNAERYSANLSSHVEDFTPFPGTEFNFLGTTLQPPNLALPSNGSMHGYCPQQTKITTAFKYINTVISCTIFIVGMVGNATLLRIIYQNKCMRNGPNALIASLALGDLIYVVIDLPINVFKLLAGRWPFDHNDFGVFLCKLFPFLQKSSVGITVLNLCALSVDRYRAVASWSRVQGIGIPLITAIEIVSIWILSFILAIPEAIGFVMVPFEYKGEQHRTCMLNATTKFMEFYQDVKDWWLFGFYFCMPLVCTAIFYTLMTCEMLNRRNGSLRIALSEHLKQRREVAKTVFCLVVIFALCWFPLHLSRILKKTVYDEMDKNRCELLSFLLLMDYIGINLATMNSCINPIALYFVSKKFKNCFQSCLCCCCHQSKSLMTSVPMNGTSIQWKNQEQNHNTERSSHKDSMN
Protocol: as §1, §2

[3] = system: endothelin-1-induced increase in cytosolic calcium ion concentration (rat aortic smooth muscle A7r5 cells); test: Inhibition of the endothelin-1-induced increase in cytosolic calcium ion concentration in A7r5 cells; assay type: cell-based; conditions: fura-2, 1 min pre-incubation, 10^-8 M endothelin-1, read-out: IC50 (concentration to inhibit the endothelin-1-induced increase in cytosolic calcium ion by 50%)
Protocol: Inhibition of the endothelin-1-induced increase in cytosolic calcium ion concentration
To a cuvette was put the suspension of rat aortic smooth muscle A7r5 cells, obtained from Dainippon Pharmaceutical Co., Ltd., loaded with 2 μM of fura-2 (Dojindo), then the change in fluorescence intensity was determined with a calcium analizer (CAF100, Nippon Bunkou Co.). In the determination,the exciting was performed at 340 nm and 380 nm and the recording at 510 nm. Calculation for the concentration of cytosolic calcium ion was performed according to the method of Grynkiewicz et al. (J.Biol.Chem., 260, P. 3440-3450, 1985). The experiment was performed as follows: at first, the present compounds were added to the cell suspension in the cuvette and the mixture was incubated for 1 min. Then, 10^-8 M of endothelin-1 was added thereto and the change in fluorescence intensity was determined. The concentration of the present compounds to inhibit the endothelin-1-induced increase in cytosolic calcium ion by 50%, (i.e., IC50) is shown at Table 2.

[4] = target: T3, endothelin-receptor (membrane fraction of porcine heart) (Sus scrofa, UniProt Q29010); test: Inhibitory effect on the binding of 125I-endothelin-1 to the receptor, porcine heart membrane; conditions: 25 pM 125I-endothelin-1, 37° C., 1 hour, read-out: IC50 (concentration to inhibit 50% of the specific binding of 125I-endothelin-1)
T3 construct: Membrane fractions were prepared from porcine and rat hearts; from tissue; host or cells: porcine heart, membrane fraction
T3 sequence (Q29010 21-427): T1 sequence (Q29010 21-427)
Protocol: as §1, §2

Compound | pIC50 [3] | also measured
CC1(C)CCC2(C(=O)O)CCC3(COC(=O)C=Cc4ccccc4)C(=CCC4C5(C)CCC(=O)C(C)(C)C5CCC43C)C2C1 (stereo not drawn) [Compound 3] | 7.74 | –
CC(=O)Oc1cccc(C=CC(=O)OCC23CCC4(C(=O)O)CCC(C)(C)CC4C2=CCC2C4(C)CCC(=O)C(C)(C)C4CCC23C)c1 (stereo not drawn) [Compound 4] | 7.47 | –
CC1(C)CCC2(C(=O)O)CCC3(COC(=O)C=Cc4cccc(OS(=O)(=O)O)c4)C(=CCC4C5(C)CCC(=O)C(C)(C)C5CCC43C)C2C1 (stereo not drawn) [Compound 6] | 7.85 | –
CC1(C)CCC2(C(=O)O)CCC3(COC(=O)C=Cc4cccc(OC(=O)CCC(=O)O)c4)C(=CCC4C5(C)CCC(=O)C(C)(C)C5CCC43C)C2C1 (stereo not drawn) [Compound 7] | 8.05 | –
CC(=O)Oc1cc(C=CC(=O)OCC23CCC4(C(=O)O)CCC(C)(C)CC4C2=CCC2C4(C)CCC(=O)C(C)(C)C4CCC23C)cc(OC(C)=O)c1 (stereo not drawn) [Compound 8] | 6.59 | –
CC(=O)Oc1ccc(C=CC(=O)OCC23CCC4(C(=O)O)CCC(C)(C)CC4C2=CCC2C4(C)CCC(=O)C(C)(C)C4CCC23C)cc1 (stereo not drawn) [Compound 10] | 6.74 | –
CC1(C)CCC2(C(=O)O)CCC3(COC(=O)C=Cc4ccccn4)C(=CCC4C5(C)CCC(=O)C(C)(C)C5CCC43C)C2C1 (stereo not drawn) [Compound 13] | 7.60 | –

Now from value to molecule, other results behind:

pIC50 [3] | Compound | also measured
7.96 | CC1(C)CCC2(C(=O)O)CCC3(COC(=O)C=Cc4ccc(O)c(O)c4)C(=CCC4C5(C)CCC(=O)C(C)(C)C5CCC43C)C2C1 (stereo not drawn) [Compound 1] | pIC50 [1]: 7.49; pIC50 [2]: 7.25; pIC50 [4]: 7.08
7.96 | CC1(C)CCC2(C(=O)O)CCC3(COC(=O)C=Cc4cccc(O)c4)C(=CCC4C5(C)CCC(=O)C(C)(C)C5CCC43C)C2C1 (stereo not drawn) [Compound 5] | –
8.35 | CC1(C)CCC2(C(=O)O)CCC3(COC(=O)C=Cc4cc(O)cc(O)c4)C(=CCC4C5(C)CCC(=O)C(C)(C)C5CCC43C)C2C1 (stereo not drawn) [Compound 9] | –
7.57 | CC1(C)CCC2(C(=O)O)CCC3(COC(=O)C=Cc4ccc(O)cc4)C(=CCC4C5(C)CCC(=O)C(C)(C)C5CCC43C)C2C1 (stereo not drawn) [Compound 11] | –
7.57 | CC1(C)CCC2(C(=O)O)CCC3(COC(=O)C=Cc4ccccc4O)C(=CCC4C5(C)CCC(=O)C(C)(C)C5CCC43C)C2C1 (stereo not drawn) [Compound 12] | –
